Target: 3-phosphoinositide-dependent protein kinase 1 (PDPK1) (Homo sapiens) (UniProt O15530)
Test: Inhibition of PDK1

IC50 | Structure (SMILES)
> 10 µM | CN1CCN(c2ccc(OC(F)(F)F)c(Nc3nccc(-c4cc(C(N)=O)cn4C)n3)c2)CC1
> 10 µM | CN1CCN(c2ccc(OC(F)(F)F)c(Nc3nccc(-c4cc5c(n4C)CCNC5=O)n3)c2)CC1

From BindingDB's records for doi:10.1016/j.bmcl.2011.11.065 (Nerviano Medical Sciences, 2011)
